For assay [1], the system named is Chlamydia trachomatis. The experiment in a line: Antimicrobial activity against Chlamydia trachomatis after 72 hrs by twofold serial dilution method. It is filed as functional.
Assay [2] concerns Chlamydia pneumoniae. The experiment in a line: Antimicrobial activity against Chlamydophila pneumoniae infected in human Hep2 cells after 72 hrs by twofold serial dilution method. It is filed as functional, HEp-2.
Assay [3] relates to Chlamydia trachomatis. Description: Antimicrobial activity against Chlamydia trachomatis after 72 hrs by fluorescence assay. It is filed as functional.
The subject of assay [4] is Chlamydia pneumoniae. The experiment in a line: Antimicrobial activity against Chlamydophila pneumoniae infected in human Hep2 cells after 72 hrs by fluorescence assay. The format is functional, HEp-2.
Assay [5] concerns Metamycoplasma hominis. The experiment in a line: Antimicrobial activity against Mycoplasma hominis by microtiter plate reader assay. It is filed as functional.
The subject of assay [6] is Mycoplasmoides pneumoniae. Description: Antimicrobial activity against Mycoplasma pneumoniae by microtiter plate reader assay. It is filed as functional.
Assay [7] deals with Neisseria gonorrhoeae. The experiment in a line: Antimicrobial activity against Neisseria gonorrhoeae by microtiter plate reader assay. It is filed as functional.
Assay [8] has as its system Ureaplasma urealyticum. Description: Antimicrobial activity against Ureaplasma urealyticum by microtiter plate reader assay. The format is functional.
The subject of assay [9] is Mycoplasma genitalium. Description: Antimicrobial activity against Mycoplasma genitalium by microtiter plate reader assay. The format is functional. Particulars: Mycoplasmoides genitalium.

Converted amounts (≈) assume the structure as drawn.

Turning to `CC[C@H]1OC(=O)[C@H](C)[C@@H](O[C@H]2C[C@@](C)(OC)[C@@H](O)[C@H](C)O2)[C@H](C)[C@@H](O[C@@H]2O[C@H](C)C[C@H](N(C)C)[C@H]2O)[C@](C)(O)C[C@@H](C)CN(C)[C@H](C)[C@@H](O)[C@]1(C)O` [AZITHROMYCIN], in assay [1], the MIC50 (commonly the lowest concentration that inhibits either 50% of growth or 50% of the strains tested, depending on the study) turned out to be 125 ng/mL (≈ 167 nM); the MIC90 – broadly, an inhibitory concentration at the 90% level, which refers to growth in some studies and to a panel of isolates in others – amounted to 125 ng/mL (≈ 167 nM). Moreover, in [2], the MIC50 amounted to 125 ng/mL (≈ 167 nM) and the MIC90 turned out to be 125 ng/mL (≈ 167 nM).
Take `CC[C@H]1OC(=O)[C@H](C)[C@@H](O[C@H]2C[C@@](C)(OC)[C@@H](O)[C@H](C)O2)[C@H](C)[C@@H](O[C@@H]2O[C@H](C)C[C@H](N(C)C)[C@H]2O)[C@](C)(OC)C[C@@H](C)C(=O)[C@H](C)[C@@H](O)[C@]1(C)O` [CLARITHROMYCIN]: the MIC50 in assay [1] and in assay [2] was 60 ng/mL (≈ 80.2 nM) in each case. In addition, the MIC90 in assay [1] and in assay [2] was 60 ng/mL (≈ 80.2 nM) each time. Further, the MBC90 in assay [3] and in [4] was 60 ng/mL (≈ 80.2 nM) throughout.
`C[C@H]1c2cccc(O)c2C(=O)C2=C(O)[C@]3(O)C(=O)C(C(N)=O)=C(O)[C@@H](N(C)C)[C@@H]3[C@@H](O)[C@@H]21.O` [DOXYCYCLINE]: the MIC50 in [1] and in assay [2] was 60 ng/mL throughout. Further, the MIC90 in assay [1] and in assay [2] was 60 ng/mL in each case. Moreover, the MBC90 in assay [3] and in assay [4] was 60 ng/mL each time.
Take `CC[C@H]1OC(=O)[C@@](C)(F)C(=O)[C@H](C)[C@@H](O[C@@H]2O[C@H](C)C[C@H](N(C)C)[C@H]2O)[C@](C)(OC)C[C@@H](C)C(=O)[C@H](C)[C@H]2N(CCCCn3cc(-c4cccc(N)c4)nn3)C(=O)O[C@]12C` [SOLITHROMYCIN]: the MIC (commonly the lowest concentration that inhibits growth of the organism) is at most 0.03 ng/mL in assay [5]; at most 500 ng/mL in assay [6]; at most 250 ng/mL in assay [7]; 0.03 ng/mL (≈ 0.0355 nM) in assay [8]; at most 0.03 ng/mL in [9]. Besides, the MIC50 in assay [1] and in [2] was 250 ng/mL (≈ 296 nM) each time. In addition, the MIC90 in [1] and in [2] was 250 ng/mL (≈ 296 nM) in each case. In addition, the MBC90 in assay [3] and in assay [4] was 250 ng/mL (≈ 296 nM) throughout.
Take `CC[C@H]1OC(=O)[C@H](C)C(=O)[C@H](C)[C@@H](O[C@@H]2O[C@H](C)C[C@H](N(C)C)[C@H]2O)[C@](C)(OC)C[C@@H](C)C(=O)[C@H](C)[C@H]2N(CCCCn3cnc(-c4cccnc4)c3)C(=O)O[C@]12C` [TELITHROMYCIN]: the MIC50 in assay [1] and in assay [2] was 60 ng/mL (≈ 73.9 nM) in each case. Besides, the MIC90 in assay [1] and in [2] was 60 ng/mL (≈ 73.9 nM) in each case. The MBC90 in assay [3] and in assay [4] was 60 ng/mL (≈ 73.9 nM) each time.
